# Tests used:
# [1] = system: Human Leukemia 60 (HL60) cells; experiment: Growth inhibition and kill of human leukemia 60 cells; format: cell-based; conditions: HL60, 72 hr. incubation; for IC50: Homo sapiens, HL-60, read-out: GI (concentration for 50% cell growth inhibition)
# Experimental: The observation that compounds 2 and 6(c) inhibit tumor cell growth, but were not strongly cytotoxic to tumor cells at the concentrations tested, prompted the synthesis of diethyl esters of compounds 6(a), 6(b), and 6(c). These derivatives were then tested with human leukemia cells (HL60 cells) grown in RPMI/fetal calf serum medium at 37° C.
# ^c Concentration for 50% cell kill.
# [2] = of substituent R; cited from earlier work
# [3] = target: bovine liver glyoxalase II (Bos taurus, UniProt Q3B7M2); experiment: Substrate and inhibition studies with bovine liver glyoxalase II; conditions: for Vm (rel.): relative to Vm for S-D-lactoylglutathione
# Experimental: The standard errors for Vm and Km were obtained by analysis of the initial rate data using the HYPER program of Cleland.
# ^a HEPES buffer (100 mM, pH 7.4), 25° C.
# ^b Listed values are relative to Vm for SD-lactoylglutathione.
# ^c Inhibition constants obtained from using the enediol analogs as
# Melanoma (UACC-62) = experiment: NCI tumor cell growth inhibition, melanoma UACC-62
# From the text: (§1) ^a Concentration for 50% cell growth inhibition versus nodrug
# (§2) ^b Concentration for total cell growth inhibition versus nodrug
# Renal Cancer (ACHN) = experiment: NCI tumor cell growth inhibition, renal cancer ACHN
# From the text: as §1, §2
# CNS Cancer (SNB-75) = experiment: NCI tumor cell growth inhibition, CNS cancer SNB-75
# From the text: as §1, §2
# Colon Cancer (KMZOLZ) = experiment: NCI tumor cell growth inhibition, colon cancer KMZOLZ
# From the text: as §1, §2
# Ovarian Cancer (SK-OV-3) = experiment: NCI tumor cell growth inhibition, ovarian cancer SK-OV-3
# From the text: as §1, §2
# [4] = system: Non-Small Cell Lung Cancer (HOP-18); experiment: NCI tumor cell growth inhibition, non-small cell lung cancer HOP-18
# From the text: as §1, §2
# [5] = HEPES buffer (100 mM, pH 7.4), 25° C.
# [6] = Homo sapiens, UACC-62, read-out: inhibition of cell growth
# [7] = Homo sapiens, 48 h, read-out: GI (concentration for 50% cell growth inhibition)
# [8] = Homo sapiens, read-out: inhibition of cell growth
# [9] = Homo sapiens, SK-OV-3, read-out: inhibition of cell growth
smiles,measurement,setting,value
"N[C@@H](CCC(=O)N[C@@H](CSC(=O)N(O)c1ccccc1)C(=O)NCC(=O)O)C(=O)O [Compound 6a, S-(N-Hydroxy N-Phenylcarbamoyl) Glutathione]",LC50 (concentration for 50% cell kill),[1],> 1000 µM
same,TGI (concentration for total cell growth inhibition),[1],> 1000 µM
same,IC50,[1],~100 µM
same,π (Hansch hydrophobicity constant),[2],2.13
same,Ki,[3],11 ± 1.2 µM
same,Km,"[3]; as substrate, HEPES buffer (100 mM, pH 7.4), 25° C.",13 ± 2 µM
same,Vm (rel.),[3]; [5],(0.46 ± 0.01) × 10^-5
"N[C@@H](CCC(=O)N[C@@H](CSC(=O)N(O)c1ccc(Cl)cc1)C(=O)NCC(=O)O)C(=O)O [Compound 6b, S-(N-Hydroxy-N-4-chlorophenylcarbamoyl) glutathione]",LC50 (concentration for 50% cell kill),[1],> 1000 µM
same,TGI (concentration for total cell growth inhibition),[1],> 1000 µM
same,IC50,[1],~100 µM
same,π (Hansch hydrophobicity constant),[2],3.04
same,Ki,[3],3.4 ± 0.8 µM
same,Vm (rel.),[3]; [5],(1.5 ± 0.3) × 10^-5
"N[C@@H](CCC(=O)N[C@@H](CSC(=O)N(O)c1ccc(Br)cc1)C(=O)NCC(=O)O)C(=O)O [Compound 6c, S-(N-Hydroxy-N-4-bromophenylcarbamoyl) glutathione]",LC50 (concentration for 50% cell kill),[1],~ 300 μM
same,TGI (concentration for total cell growth inhibition),[1],63 µM
same,IC50,[1],20 µM
same,π (Hansch hydrophobicity constant),[2],3.25
same,IC50,"Melanoma (UACC-62); Homo sapiens, UACC-62, 48 h, read-out: GI (concentration for 50% cell growth inhibition)",126 µM
same,inhibition at 10 µM,Melanoma (UACC-62); [6],~20%
same,inhibition at 100 µM,Melanoma (UACC-62); [6],50%
same,inhibition of cell growth,"Melanoma (UACC-62); UACC-62, 10^-6 M and lower concentrations",minimal inhibition
same,LC50 (concentration for 50% cell kill),"Melanoma (UACC-62); UACC-62, 48 hrs. incubation",> 1000 µM
same,TGI (concentration for total cell growth inhibition),"Melanoma (UACC-62); UACC-62, 48 hrs. incubation",> 1000 µM
same,LC50 (concentration for 50% cell kill),Renal Cancer (ACHN); 48 hrs. incubation,> 1000 µM
same,TGI (concentration for total cell growth inhibition),Renal Cancer (ACHN); 48 hrs. incubation,~ 200 μM
same,IC50,Renal Cancer (ACHN); [7],25 µM
same,inhibition at 10 µM,Renal Cancer (ACHN); [8],30%
same,inhibition at 100 µM,Renal Cancer (ACHN); [8],~95%
same,inhibition of cell growth,"CNS Cancer (SNB-75); CNS human cancer cells, 10^-6 M and 10^-5 M",about 20%
same,IC50,"CNS Cancer (SNB-75); Homo sapiens, SNB-75, 48 h, read-out: GI (concentration for 50% cell growth inhibition)",63 µM
same,inhibition at 100 µM,"CNS Cancer (SNB-75); Homo sapiens, SNB-75, read-out: inhibition of cell growth",60%
same,LC50 (concentration for 50% cell kill),"CNS Cancer (SNB-75); SNB-75, 48 hrs. incubation",> 1000 µM
same,TGI (concentration for total cell growth inhibition),"CNS Cancer (SNB-75); SNB-75, 48 hrs. incubation",~ 1000 μM
same,IC50,Colon Cancer (KMZOLZ); [7],40 µM
same,inhibition at 100 µM,Colon Cancer (KMZOLZ); [8],80%
same,inhibition of cell growth,"Colon Cancer (KMZOLZ); KMZOL2, 10^-6 and 10^-5",about 10%
same,LC50 (concentration for 50% cell kill),"Colon Cancer (KMZOLZ); KMZOLZ, 48 hrs. incubation",> 1000 µM
same,TGI (concentration for total cell growth inhibition),"Colon Cancer (KMZOLZ); KMZOLZ, 48 hrs. incubation",~ 320 μM
same,IC50,"Ovarian Cancer (SK-OV-3); Homo sapiens, SK-OV-3, 48 h, read-out: GI (concentration for 50% cell growth inhibition)",32 µM
same,inhibition at 1 µM,Ovarian Cancer (SK-OV-3); [9],~40%
same,inhibition at 100 µM,Ovarian Cancer (SK-OV-3); [9],> 80%
same,inhibition of cell growth,"Ovarian Cancer (SK-OV-3); SK-OV-3, 10^-5",about 30%
same,LC50 (concentration for 50% cell kill),"Ovarian Cancer (SK-OV-3); SK-OV-3, 48 hrs. incubation",> 1000 µM
same,TGI (concentration for total cell growth inhibition),"Ovarian Cancer (SK-OV-3); SK-OV-3, 48 hrs. incubation",~ 250 μM
same,Ki,[3],1.2 ± 0.4 µM
same,Vm (rel.),[3]; [5],(2.1 ± 0.4) × 10^-5
same,cell growth inhibition,"[4]; HOP-18, 10^-6 to 10^-5 M",about 15%
same,LC50 (concentration for 50% cell kill),"[4]; HOP-18, 48 hrs. incubation",> 1000 µM
same,TGI (concentration for total cell growth inhibition),"[4]; HOP-18, 48 hrs. incubation",~ 250 μM
same,IC50,"[4]; Homo sapiens, HOP-18, 48 h, read-out: GI (concentration for 50% cell growth inhibition)",40 µM
same,inhibition at 100 µM,"[4]; Homo sapiens, HOP-18, read-out: cell growth inhibition",~80%
